Starred links: 1 amine or outer side, 2 acyl side, 3 side chain; linkers in the order of their positions; H or OH if unused. Suc = O=C(CCC(=O)[*:2])[*:1]
How the values were obtained:
[1] = test system: cervical carcinoma HeLa cells; format: cell-based, human; conditions: MTT, 72 h incubation; read-out: IC50 (μM) ± SD Hela
Protocol: (§1) All cell lines were purchased from the American Type Culture Collection (ATCC, Manassas, VA)[29].
(§2) 24 h later, triplicate wells were treated with media and the compounds being tested. After 72 h of incubation at 37 °C in 5% CO2, the drug-containing medium was removed and replaced with […] of fresh medium containing 5 mg/mL MTT solution. After 4 h of incubation, the medium with MTT was removed, and […] of dimethyl sulfoxide (DMSO) was added to each well. The plates were gently agitated until the purple formazan crystals were dissolved, and the OD490 values were determined using a microplate reader (MK3, Thermo, Germany). The data were calculated and plotted as the percent viability compared to the control.

[2] = test system: gastric adenocarcinoma SGC-7901 cells; format: cell-based, human; conditions: MTT, 72 h incubation; read-out: IC50 (μM) ± SD SGC-7901
Protocol: as §1, §2

[3] = test system: lung adenocarcinoma A549 cells; format: cell-based, human; conditions: MTT, 72 h incubation; read-out: IC50 (μM) ± SD A549
Protocol: as §1, §2

[4] = test system: mouse fibroblasts L929 cells; format: cell-based; conditions: MTT, 72 h incubation, normal cells; read-out: IC50 (μM) ± SD L929
Protocol: as §1, §2

[5] = Physiological stability by HPLC analysis; format: physicochemical; conditions: 5 µM; water, PBS, and cell culture fluid; 72 h incubation, room temperature
Protocol: Figure 4. Stabilities of Deac-SS-Biotin (9, 5 µM) in water, and PBS cell culture fluid were investigated by HPLC analysis. (A) HPLC analysis of Deac-SS-Biotin (9) in water after incubation for and 72 h; (B) HPLC analysis of Deac-SS-Biotin (9) in PBS after incubation for and 72 h; (C) HPLC analysis of Deac-SS-Biotin (9) in cell culture fluid after incubation for and 72 h.
To 8 ml of water, PBS, or cell culture fluid, 2 ml of DMSO stock solution of Deac-SS-Biotin was added. The mixture was incubated with gentle shaking for 72 h at room temperature during which the mixture was measured by HPLC spectra.

[6] = In vitro release of Deac from biotin conjugates with DTT (HPLC); format: physicochemical; conditions: 5 μM conjugate
Protocol: To investigate the mechanism of GSH-triggered drug release, the in vitro drug release profiles of Deac-SS-Biotin (9) and Deac-Biotin (10) were investigated using DTT (Glutathione mimetic). As shown in Figure 5(A), almost none of Deac was released from Deac-SS-Biotin (9) within 24 h in blank PBS (pH 7.2–7.4, without DTT), and more than 70% of Deac was released within 8 h in the presence of 5, 10, and 20 μM DTT. By contrast, there was negligible Deac (<1.0%) released from Deac-Biotin (10) after 24 h incubation in the presence or absence of 20 μM DTT (Figure 5(B)). […] Furthermore, Deac release from the Deac-SS-Biotin (9) at 10 μM DTT was also investigated by HPLC analysis (Figure 5(C)). Free Deac-SS-Biotin (9) was eluted at 10.8 min in HPLC chromatogram. As 10 μM DTT was added to Deac-SS-Biotin (9), it was sheared by DTT. As chemical reaction involved, this scission was subjected to intramolecular cyclisation, followed by ring-forming condensation, resulting in the liberation of Deac. The peak at 14.3 min appeared accompanied by the disappearance of Deac-SS-Biotin (9), and well-matched with free Deac.
Figure 5. In vitro release of Deac from prodrugs. (A) Release profiles of Deac from Deac-SS-Biotin (9, 5 μM) with 0 μM, 5 μM, 10 μM and 20 μM DTT in PBS (pH 7.2–7.4) (n = 3). (B) Release profiles of Deac from Deac-Biotin (10, 5 μM) with 0 μM, 5 μM, 10 μM and 20 μM DTT in PBS (pH 7.2–7.4) (n = 3). (C) HPLC spectra of Deac-SS-Biotin (9, 5 μM) with 10 μM DTT at 0 and 24 h.
The release of Deac from Deac-SS-Biotin was studied in PBS (pH 7.2–7.4) containing 20% DMSO with 0, 5, 10, or 20 μM, dithiothreitol (DTT), respectively. Briefly, biotin-conjugates (5 μM) were incubated in 10 ml of release medium at 37 °C. At timed intervals, 0.1 ml of sample was withdrawn, and the content of Deac, Deac-Biotin, and Deac-SS-Biotin was determined by HPLC (HPLC-LC-20AT, Shimadzu using SPD-20A UV as the detector, C18 (4.6 × 250 mm, […]) as HPLC analysis column. Method: gradient: 45% methanol in water as mobile elution, flow rate: 1.0 ml min^-1). The UV detector was kept at 254 nm.

A549 cells = experiment: Cytotoxicity in A549 cells in the presence of biotin (biotin receptor competition); format: cell-based, human
Protocol: To explore the contribution of biotin receptor to the transport of biotin conjugates, Deac-SS-Biotin (9) and biotin were evaluated for the antiproliferative activity against A549 cells.
Figure 6. In vitro cytotoxicity of biotin, Deac (13), and Deac-SS-Biotin (9) in A549 cells. Cytotoxicity of biotin, Deac + biotin, and Deac-SS-Biotin + biotin in A549 cells (n = 3).
as §2

porcine brain tubulin = porcine brain tubulin (Sus scrofa, UniProt P02550+P02554)
Chain of porcine brain tubulin (P02554 whole entry): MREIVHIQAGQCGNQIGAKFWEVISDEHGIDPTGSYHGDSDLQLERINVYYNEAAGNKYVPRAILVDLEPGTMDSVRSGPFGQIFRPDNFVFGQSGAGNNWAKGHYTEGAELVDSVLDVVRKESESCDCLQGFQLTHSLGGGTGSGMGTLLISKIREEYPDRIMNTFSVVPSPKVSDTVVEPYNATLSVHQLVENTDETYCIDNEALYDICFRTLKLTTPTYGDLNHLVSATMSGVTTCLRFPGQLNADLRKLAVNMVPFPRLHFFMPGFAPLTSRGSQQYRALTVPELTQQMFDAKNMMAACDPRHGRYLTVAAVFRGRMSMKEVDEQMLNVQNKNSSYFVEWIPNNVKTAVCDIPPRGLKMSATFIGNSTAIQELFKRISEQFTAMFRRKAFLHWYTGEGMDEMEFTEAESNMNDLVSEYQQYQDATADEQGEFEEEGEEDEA
Chain of porcine brain tubulin (P02550 whole entry): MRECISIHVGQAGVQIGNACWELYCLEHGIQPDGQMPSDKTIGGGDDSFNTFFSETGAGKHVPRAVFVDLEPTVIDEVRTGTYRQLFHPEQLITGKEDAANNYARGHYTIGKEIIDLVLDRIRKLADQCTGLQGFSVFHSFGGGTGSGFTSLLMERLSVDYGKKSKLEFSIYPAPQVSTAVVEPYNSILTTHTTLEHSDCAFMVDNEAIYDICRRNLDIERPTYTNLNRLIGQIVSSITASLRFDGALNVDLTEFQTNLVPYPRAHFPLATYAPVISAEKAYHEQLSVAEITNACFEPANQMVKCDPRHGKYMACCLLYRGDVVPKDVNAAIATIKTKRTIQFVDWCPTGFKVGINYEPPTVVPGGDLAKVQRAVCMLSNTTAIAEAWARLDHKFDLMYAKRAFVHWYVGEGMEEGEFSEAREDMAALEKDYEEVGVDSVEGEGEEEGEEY
Protocol: To examine the biological mechanism of biotin conjugates, Deac-SS-Biotin (9) was evaluated for its effects on tubulin polymerisation (Figure 7).
Figure 7. The effect of Deac-SS-Biotin (9) on tubulin polymerisation. […] The reaction was monitored at 37 °C.
First, 96-well plate was incubated with […] of inhibitors in various concentrations at 37 °C for 1 min. Then […] of the tubulin reaction mix was added. The samples were mixed well, and tubulin assembly was monitored (emission wavelength of 420 nm; excitation wavelength pf 360 nm) at 1 min intervals for 90 min at 37 °C using a plate reader (FAS-Calibur, BD Biosciences, USA).

[7] = test system: cells over-expressing active legumain (M38L, HCT116); conditions: HCT116 vs HEK293, M4C, SW620; cited from earlier work

Molecule: 2-((2-((((S)-2,3,4,10-tetramethoxy-9-oxo-5,6,7,9-tetrahydrobenzo[a]heptalen-7-yl)carbamoyl)oxy)ethyl)disulfanyl)ethyl 5-((3aS,4S,6aR)-2-oxohexahydro-1H-thieno[3,4-d]imidazol-4-yl)pentanoate [Compound 9]
- IC50 [1]: 0.108 ± 0.01 µM
- IC50 [2]: 0.124 ± 0.011 µM
- IC50 [3]: 0.085 ± 0.008 µM
- IC50 [4]: 4.22 ± 0.102 µM
- peak area and peak height (HPLC stability) [5]: nearly remained unchanged
- Deac released ([6]; PBS pH 7.2–7.4, in the presence of 5, 10, and 20 μM DTT, within 8 h, 37 °C): more than 70%
- Deac released ([6]; blank PBS (pH 7.2–7.4, without DTT), within 24 h, 37 °C): almost none
- cell viability (A549 cells; A549, compound at 2-fold IC50, biotin 0.075 μM): 23.6%
- cell viability (A549 cells; A549, compound at 2-fold IC50, biotin 0.60 μM): 68.9%
- cell viability (A549 cells; A549, compound at 2-fold IC50, in the absence of biotin): 17.7%
- anti-tubulin polymerisation activity after coincubation with DTT (porcine brain tubulin; compound at 5 µM and DTT at 10 µM): strong anti-tubulin polymerisation activity
- inhibition activity on tubulin polymerisation (porcine brain tubulin; compound at 5 µM, without DTT): weak inhibition activity

Molecule: 2-((2-oxo-2–(2-(5-((3aS,4S,6aR)-2-oxohexahydro-1H-thieno[3,4-d]imidazol-4-yl)pentanoyl)hydrazinyl)ethyl)thio)-N-((S)-2,3,4,10-tetramethoxy-9-oxo-5,6,7,9-tetrahydrobenzo[a]heptalen-7-yl)acetamide [Compound 11c]
- IC50 [1]: 2.17 ± 0.1 µM
- IC50 [2]: 1.95 ± 0.071 µM
- IC50 [3]: 1.31 ± 0.092 µM
- IC50 [4]: 10.7 ± 0.2 µM

Molecule: 4-oxo-4–(2-(5-((3aS,4S,6aR)-2-oxohexahydro-1H-thieno[3,4-d]imidazol-4-yl)pentanoyl)hydrazinyl)-N-((S)-2,3,4,10-tetramethoxy-9-oxo-5,6,7,9-tetrahydrobenzo[a]heptalen-7-yl)butanamide [Compound 11a]
- IC50 [1]: 3.5 ± 0.15 µM
- IC50 [2]: 7.52 ± 0.12 µM
- IC50 [3]: 6.52 ± 0.19 µM
- IC50 [4]: > 20 µM

Molecule: 5-((3aS,4S,6aR)-2-oxohexahydro-1H-thieno[3,4-d]imidazol-4-yl)-N-((S)-2,3,4,10-tetramethoxy-9-oxo-5,6,7,9-tetrahydrobenzo[a]heptalen-7-yl)pentanamide [Compound 10]
- IC50 [1]: 6.35 ± 0.11 µM
- IC50 [2]: 4.9 ± 0.18 µM
- IC50 [3]: 4.85 ± 0.13 µM
- IC50 [4]: 15.8 ± 0.31 µM
- Deac released ([6]; PBS pH 7.2–7.4, after 24 h incubation in the presence or absence of 20 μM DTT): < 1.0%

Molecule: 5-oxo-5–(2-(5-((3aS,4S,6aR)-2-oxohexahydro-1H-thieno[3,4-d]imidazol-4-yl)pentanoyl)hydrazinyl)-N-((S)-2,3,4,10-tetramethoxy-9-oxo-5,6,7,9-tetrahydrobenzo[a]heptalen-7-yl)pentanamide [11 b]
- IC50 [1]: 6.94 ± 0.16 µM
- IC50 [2]: 2.29 ± 0.09 µM
- IC50 [3]: 2.23 ± 0.12 µM
- IC50 [4]: 13.4 ± 0.18 µM

Molecule: 5: legumain-cleavable peptide (Suc-Ala-Ala-Asn-Val)-colchicine (Suc-AANV-colchicine) [Compound 5]
- toxicity to cells over-expressing active legumain compared to cells expressing low levels of active or only prolegumain [7]: more toxic

Molecule: O=C(O)CCCC[C@@H]1SC[C@@H]2NC(=O)N[C@@H]21 [biotin, reference compound]
- cytotoxicity alone (A549 cells; A549, biotin alone at various concentrations): no cytotoxicity

— publication PMC8725855 (Journal of Enzyme Inhibition and Medicinal Chemistry, 2021)
